The values below are quoted from earlier work in PMC5306265 (Investigational New Drugs, 2016).

The subject of one series is pERK. Also noted: method as in PMID 18390968, PMID 24178622. Particulars: paired tumor biopsies; cited from earlier work.
Series [1] deals with BRAF V600E/K-mutant melanoma. Also noted: method as in PMID 22663011, PMID 22805292. The settings on record: cited from earlier work.

Take `Cn1cnc2c(F)c(Nc3ccc(Br)cc3Cl)c(C(=O)NOCCO)cc21` [selumetinib]: in the series with pERK, the “geometric mean pERK reduction” value is listed as 79%.

As to `CC(=O)Nc1cccc(-n2c(=O)n(C3CC3)c(=O)c3c(Nc4ccc(I)cc4F)n(C)c(=O)c(C)c32)c1` [trametinib], the response rates entry in series [1] is recorded as “approximately 20%”.
